For data set [1], the target named is T1, IP receptor (Homo sapiens, UniProt P43119).
T1 construct: HEL cells were collected with centrifugation and washed with cAMP assay buffer; host or cells: HEL 92.1.7 human erythroleukemia cells
The experiment in a line: Iloprost-induced cAMP production assay in HEL cells (Assay 2). Type of data set: cell-based. The following applies: read-out: Activity grade assay 2. How it is done: [Iloprost-Induced cAMP Production Assay in HEL Cells] (Assay 2)
HEL cells were collected with centrifugation and washed with cAMP assay buffer (CAB: Hank's balanced salt solution, 17 mM Hepes, 0.1% bovine serum albumin, 1 mM IBMX, 0.4% DMSO, and 1 mM L-ascorbic acid sodium salt (pH 7.4)). Cells were suspended at the density of 2.5×10^5 cells/ml in CAB, and twenty thousand cells in 80 μl aliquot of cell suspension were put in a well of 96 well plate (Falcon). Then, 10 μl of compound solution diluted with 1% DMSO in CAB or buffer alone was added. The plate was incubated at 37° C. for 30 min. Then, another 10 μl containing 100 nM iloprost in CAB or buffer alone was added and further incubated at 37° C. for 30 min. cAMP content in the well was measured by a cAMP ELISA kit (Applied Biosystems, USA).
Results of Iloprost-induced cAMP production assay (Assay2) are shown in Examples and tables of the Examples below. For practical reasons, the compounds are grouped in three classes of activity as follows: A(=or<)0.1μM<B(=or<)1μM<C
In general terms: cAMP levels reflect the balance of adenylyl cyclase and phosphodiesterase activity.

We go through 38 compounds from patent publication US20060166989A1, “2-naphthamide derivatives” (Bayer Healthcare AG, priority 2002, published 2006).

T1 sequence (P43119 whole entry): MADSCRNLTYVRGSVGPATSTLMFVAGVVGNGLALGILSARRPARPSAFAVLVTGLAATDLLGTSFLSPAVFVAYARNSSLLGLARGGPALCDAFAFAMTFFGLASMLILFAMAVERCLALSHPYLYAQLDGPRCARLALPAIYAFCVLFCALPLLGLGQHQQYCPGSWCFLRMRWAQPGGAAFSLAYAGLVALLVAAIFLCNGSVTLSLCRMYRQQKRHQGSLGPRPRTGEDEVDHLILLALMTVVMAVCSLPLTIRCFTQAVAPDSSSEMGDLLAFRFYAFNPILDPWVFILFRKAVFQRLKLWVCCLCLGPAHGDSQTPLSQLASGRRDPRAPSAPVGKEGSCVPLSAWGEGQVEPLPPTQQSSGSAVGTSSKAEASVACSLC

`Cc1cc(C)cc(COc2ccc3cc(C(=O)NC(Cc4ccccc4)C(=O)O)ccc3c2)c1` (stereo not shown) [Example 1-57] had a melting point of 167 to 168 °C. Also, the IC50 in data set [1] lay in the range of 100 to 1000 nM.

In turn, `Cc1cccc(COc2ccc3cc(C(=O)NC(Cc4ccccc4)C(=O)O)ccc3c2)c1` (stereo not shown) [Example 1-55] came in with a melting point of 184 to 185 °C. In data set [1], the IC50 is under 100 nM.

With `COc1ccccc1COc1ccc2cc(C(=O)NC(Cc3ccccc3)C(=O)O)ccc2c1` (stereo not shown) [Example 1-29], the melting point worked out at 169 °C. Besides, the IC50 in data set [1] was under 100 nM.

Regarding `O=C(NC(Cc1ccccc1)C(=O)O)c1ccc2cc(OCC3CCCCC3)ccc2c1` (stereo not shown) [Example 1-74], the melting point was 220 °C. Moreover, the IC50 in data set [1] was in the range of 100 to 1000 nM.

`O=C(NC(Cc1ccccc1)C(=O)O)c1ccc2cc(OCc3ccc(Cl)cc3)ccc2c1` (stereo not shown) [Example 1-25] came in with a melting point of 226 °C. The IC50 in data set [1] is 100 to 1000 nM.

In turn, `O=C(NC(Cc1ccc(Cl)cc1)C(=O)O)c1ccc2cc(OCc3ccccc3)ccc2c1` (stereo not shown) [Example 1-20] displayed a melting point of 202 to 204 °C. Also, the IC50 in data set [1] was under 100 nM.

In the case of `O=C(NC(Cc1ccc(Br)cc1)C(=O)O)c1ccc2cc(OCc3ccccc3)ccc2c1` (stereo not shown) [Example 1-45], the melting point is 219 to 220 °C. Besides, the IC50 in data set [1] is under 100 nM.

The compound `O=C(NC(Cc1cccs1)C(=O)O)c1ccc2cc(OCc3ccccc3)ccc2c1` (stereo not shown) [Example 1-44] gave a melting point of 200 to 202 °C. The IC50 in data set [1] was under 100 nM.

On to `O=C(NC(Cc1ccccn1)C(=O)O)c1ccc2cc(OCc3ccccc3)ccc2c1` (stereo not shown) [Example 1-43], for which the melting point is 172 to 173 °C (dec.). Further, the IC50 in data set [1] is 100 to 1000 nM.

Consider `O=C(NC(Cc1ccccc1)C(=O)O)c1ccc2cc(OCCN3CCCC3)ccc2c1` (stereo not shown) [Example 1-81], for which the melting point was 234 °C. In data set [1], the IC50 was over 1000 nM.

`CCOc1cccc(COc2ccc3cc(C(=O)NC(Cc4ccccc4)C(=O)O)ccc3c2)c1` (stereo not shown) [Example 1-91] came in with a melting point of 145 °C. Also, the IC50 in data set [1] was under 100 nM.

The compound `O=C(NC(Cc1ccccc1)C(=O)O)c1ccc2cc(OCc3ccccc3F)ccc2c1` (stereo not shown) [Example 1-7] returned a melting point of 180 to 182 °C. The IC50 in data set [1] was under 100 nM.

For `CC(C)COc1cccc(COc2ccc3cc(C(=O)NC(Cc4ccccc4)C(=O)O)ccc3c2)c1` (stereo not shown) [Example 1-93], the melting point came to 140 °C. The IC50 in data set [1] is 100 to 1000 nM.

`O=C(NC(Cc1ccccc1)C(=O)O)c1ccc2cc(OCCCc3ccccc3)ccc2c1` (stereo not shown) [Example 1-64] had a melting point of 182 °C. Besides, in data set [1], the IC50 is 100 to 1000 nM.

Compound `Cc1c(COc2ccc3cc(C(=O)NC(Cc4ccccc4)C(=O)O)ccc3c2)cccc1[N+](=O)[O-]` (stereo not shown) [Example 1-39] gave a melting point of 202 °C. Moreover, the IC50 in data set [1] was 100 to 1000 nM.

`O=C(NC(Cc1ccccc1)C(=O)O)c1ccc2cc(OCc3ccc(F)cc3F)ccc2c1` (stereo not shown) [Example 1-59] returned a melting point of 199 °C. For the same compound, the IC50 in data set [1] lay in the range of 100 to 1000 nM.

`O=C(NC(CCc1ccccc1)C(=O)O)c1ccc2cc(OCc3ccccc3)ccc2c1` (stereo not shown) [Example 1-72] displayed a melting point of 223 to 225 °C. Besides, the IC50 in data set [1] was over 1000 nM.

On to `Nc1ccc(CC(NC(=O)c2ccc3cc(OCc4ccccc4)ccc3c2)C(=O)O)cc1` (stereo not shown) [Example 1-66], for which the melting point lay within 238 to 240 °C. Further, the IC50 in data set [1] was over 1000 nM.

On to `O=C(NC(Cc1ccccc1)C(=O)O)c1ccc2cc(OCc3cccc([N+](=O)[O-])c3)ccc2c1` (stereo not shown) [Example 1-61], for which the melting point fell in the range of 193 to 194 °C. Also, the IC50 in data set [1] was under 100 nM.

`CCCCOc1ccc2cc(C(=O)NC(Cc3ccccc3)C(=O)O)ccc2c1` (stereo not shown) [Example 1-65] came in with a melting point of 209 °C. The IC50 in data set [1] fell in the range of 100 to 1000 nM.

`O=C(N[C@@H](Cc1ccccc1)C(=O)O)c1ccc2cc(OCc3ccccc3)ccc2c1` (single isomer, unassigned) [Example 1-1, N-(6-Benzyloxy-2-naphthoyl)phenylalanine]: the melting point was found to be 230 °C. For the same compound, the IC50 in data set [1] is under 100 nM.

As for `COc1cc(COc2ccc3cc(C(=O)NC(Cc4ccccc4)C(=O)O)ccc3c2)cc(OC)c1` (stereo not shown) [Example 1-35], the melting point worked out at 140 °C. In addition, the IC50 in data set [1] is under 100 nM.

`O=C(NC(Cc1ccccc1)C(=O)O)c1ccc2cc(OCc3ccncc3)ccc2c1` (stereo not shown) [Example 1-12] had a melting point of 220 to 221 °C. The IC50 in data set [1] is under 100 nM.

The compound `O=C(NC(Cc1ccccc1)C(=O)O)c1ccc2cc(OCc3ccc(F)cc3)ccc2c1` (stereo not shown) [Example 1-5] gave a melting point of 197 °C. Also, the IC50 in data set [1] is under 100 nM.

As to `O=C(NC(Cc1ccc(-c2ccncc2)cc1)C(=O)O)c1ccc2cc(OCc3ccccc3)ccc2c1` (stereo not shown) [Example 1-75], the melting point was 247 to 249 °C (dec.). For the same compound, in data set [1], the IC50 is 100 to 1000 nM.

`O=C(NC(Cc1ccccc1F)C(=O)O)c1ccc2cc(OCc3ccccc3)ccc2c1` (stereo not shown) [Example 1-50] came in with a melting point of 211 to 213 °C. The IC50 in data set [1] is under 100 nM.

The compound `O=C(NC(Cc1ccccc1)C(=O)O)c1ccc2cc(OCCN3CCCCC3)ccc2c1` (stereo not shown) [Example 1-82] yielded a melting point of 215 °C. For the same compound, in data set [1], the IC50 is over 1000 nM.

Turning to `O=C(NC(Cc1ccc(-c2ccccc2)cc1)C(=O)O)c1ccc2cc(OCc3ccccc3)ccc2c1` (stereo not shown) [Example 1-73], the melting point was in the range of 250 to 252 °C. In data set [1], the IC50 lay in the range of 100 to 1000 nM.

`O=C(NC(Cc1ccccc1)C(=O)O)c1ccc2cc(OCCc3cccnc3)ccc2c1` (stereo not shown) [Example 1-77] returned a melting point of 113 °C. Also, the IC50 in data set [1] fell in the range of 100 to 1000 nM.

`O=C(NC(Cc1ccccc1)C(=O)O)c1ccc2cc(OCc3ccccn3)ccc2c1` (stereo not shown) [Example 1-9] registered a melting point of 214 °C. For the same compound, in data set [1], the IC50 is 100 to 1000 nM.

As to `O=C(NC(Cc1ccc(N2CCOCC2)cc1)C(=O)O)c1ccc2cc(OCc3ccccc3)ccc2c1` (stereo not shown) [Example 1-76], the melting point was 216 to 218 °C (dec.). For the same compound, the IC50 in data set [1] is over 1000 nM.

In the case of `O=C(NC(Cc1ccccc1)C(=O)O)c1ccc2cc(OCc3ccc(F)c(F)c3)ccc2c1` (stereo not shown) [Example 1-10], the melting point worked out at 185 °C. In addition, the IC50 in data set [1] was under 100 nM.

For `O=C(NC(Cc1c[nH]c2ccc(F)cc12)C(=O)O)c1ccc2cc(OCc3ccccc3)ccc2c1` (stereo not shown) [Example 1-79], the melting point is 236 to 238 °C (dec.). Further, the IC50 in data set [1] is under 100 nM.

For the compound `O=C(NC(Cc1ccccc1)C(=O)O)c1ccc2cc(OCc3cccc4ccccc34)ccc2c1` (stereo not shown) [Example 1-70], the melting point was found to be 220 °C. Further, the IC50 in data set [1] is 100 to 1000 nM.

With `O=C(NC(Cc1ccccc1)C(=O)O)c1ccc2cc(OCc3ccc(Cl)c(Cl)c3)ccc2c1` (stereo not shown) [Example 1-32], the melting point stood at 202 °C. Moreover, the IC50 in data set [1] fell in the range of 100 to 1000 nM.

Regarding `O=C(NC(Cc1ccccc1)C(=O)O)c1ccc2cc(OCc3ccc(Cl)cc3Cl)ccc2c1` (stereo not shown) [Example 1-42], the melting point amounted to 202 °C. Also, the IC50 in data set [1] was over 1000 nM.

As to `Cc1nc(COc2ccc3cc(C(=O)NC(Cc4ccccc4)C(=O)O)ccc3c2)cs1` (stereo not shown) [Example 1-62], the melting point is 208 °C. Further, the IC50 in data set [1] was in the range of 100 to 1000 nM.

In turn, `O=C(NC(Cc1cccc(F)c1)C(=O)O)c1ccc2cc(OCc3ccccc3)ccc2c1` (stereo not shown) [Example 1-21] gave a melting point of 188 to 191 °C. Moreover, the IC50 in data set [1] is under 100 nM.

As a reminder, the melting point is the temperature, or range, at which the solid turns liquid.
